Source: publication PMC3229523, “Identification of Lactoferricin B Intracellular Targets Using an Escherichia coli Proteome Chip” (PLoS ONE, 2011)
Entries after “also recorded” stand apart in the source; their conditions may differ. Ends that are not written are not given here. * marks the point of attachment. Biotin = O=C1N[C@H]2[C@H](CS[C@H]2CCCCC(=O)*)N1

Columns and labels:
E. coli K-12 MG1655 = test: E. coli growth inhibition (growth curves, OD595); assay type: cell-based; details: 22.4 µM, approx. 10^7 CFU/ml, LB medium, 37°C with shaking, OD595 every 20 min for 7 h 20 min, PBS negative control, Figure 2
Method: The E. coli K-12 MG1655 strain was first inoculated into LB medium and incubated at 37°C with shaking for 16 h. After incubation, the culture was diluted to approximately 10^7 CFU/ml using LB medium. Then, 22.4 µM of N-terminal biotinylated LfcinB (Kelowna Inc.), LfcinB (Kelowna Inc.) or biotin (Thermo) were individually added to the diluted cultures in a 96-well plate. PBS was used as a negative control. Finally, each compound or PBS with E. coli was incubated at 37°C with shaking and the growth curves were observed by measuring the OD595 value every 20 min for 7 h 20 min in a microplate reader (Synergy 2, BioTek®).

[1] = system: E. coli K-12 proteins (E. coli proteome chip); test: E. coli proteome chip assay; assay type: binding; details: 10 nM N-terminal biotinylated LfcinB, 1% BSA, room temperature, 1 h; ratio DyLight 649 to DyLight 549, ProCAT local cut-off; triplicate
Method: To fabricate the proteome chips, E. coli K-12 proteins were expressed and purified in a high-throughput fashion. The procedure was modified from Chen et al.. Briefly, E. coli protein expression clones fused with a 6×-His tag, provided by Dr. Mori, were first incubated with glass beads (Biospec Products Inc.) in 2× LB medium containing 30 µg/ml chloramphenicol in 96 DeepWell™ plates (Nunc) at 37°C overnight. The overnight cultures were then diluted with 2× LB that contains 30 µg/ml chloramphenicol to the OD595 value of 0.1. When the cells grew to an OD595 value of 0.7–0.9, 500 µM of isopropyl β-D-thiogalactoside (IPTG) was added to induce protein expression at 37°C for ∼3.5 h. The cultures were then harvested by centrifugation at 3220 g for 5 min at 4°C, and the pellets were stored at −80°C before purification. […]
For image processing of chip assay results, Genepix Pro 6.0 was used to align the protein spot of each individual protein and then all aligned protein image signals were exported as a text file. The text file was analyzed by ProCAT [17], a signal normalization method. The relative ability of LfcinB to bind to each protein was estimated by the ratio of the fluorescence intensity of LfcinB to the fluorescence intensity of an anti-His antibody after the normalization. […]

Compound | growth curves / inhibition of E. coli growth (E. coli K-12 MG1655) | number of proteins selected as LfcinB-binding (top 5% of the E. coli proteome, membrane proteins ruled out) [1]
O=C(O)CCCC[C@@H]1SC[C@@H]2NC(=O)N[C@@H]21 [biotin, reference compound] | had no influence on E. coli growth | –
biotinylated LfcinB: N-terminal biotinylated LfcinB (Kelowna Inc.), used as probe in chip assays (Biotin-FKCRRWQWRMKKLGAPSITCVRRAF; ends and bridges not checked) | exhibited the same inhibition of E. coli growth; also recorded: exhibit the same antibacterial activity | 153 proteins
